Laboratory results from the supplement of paper PMC6045584.
± gives the standard deviation of the averaged measurements.

What was measured:
[1] = compound: COc1ccc(C2=N[C@@H](c3ccc(Cl)cc3)[C@@H](c3ccc(Cl)cc3)N2C(=O)N2CCNC(=O)C2)c(OC(C)C)c1 [NUTLIN3]; assay: surviving fraction relative to DMSO-only wells; higher = less growth inhibition; details: exposure time: 5 days
In short: (§1)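 Lines were retained only if, across three screens, replicate Pearson r was >0.7 and median Z' was >0.3. Viability was measured as CellTiter-Glo luminescence and reported as surviving fraction relative to the median of DMSO-only wells. Readings followed 10 minutes at room temperature, after log-phase tumour cells seeded at 250–500 per well in 384-well plates had been exposed, from 24 hours after seeding, continuously for five days to inhibitors at 0.5, 1, 5, 10, 50, 100, 500 and 1000 nM.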

[2] = compound: Nc1ncn([C@H]2C[C@H](O)[C@@H](CO)O2)c(=O)n1 [DECITABINE]; assay: as above; details: exposure time: 5 days
In short: as §1

| Test System | surviving fraction ([1]; 0.5 nM) | surviving fraction ([1]; 1 nM) | surviving fraction ([1]; 5 nM) | surviving fraction ([1]; 10 nM) | surviving fraction ([1]; 50 nM) | surviving fraction ([1]; 100 nM) | surviving fraction ([1]; 500 nM) | surviving fraction ([1]; 1000 nM) | surviving fraction ([2]; 0.5 nM) | surviving fraction ([2]; 1 nM) | surviving fraction ([2]; 5 nM) | surviving fraction ([2]; 10 nM) | surviving fraction ([2]; 50 nM) | surviving fraction ([2]; 100 nM) | surviving fraction ([2]; 500 nM) | surviving fraction ([2]; 1000 nM) |
| --- | --- | --- | --- | --- | --- | --- | --- | --- | --- | --- | --- | --- | --- | --- | --- | --- |
| HCC1806 BREAST | 1.07 ± 0.079 | 1.04 ± 0.1 | 1.07 ± 0.15 | 1.08 ± 0.13 | 1.07 ± 0.1 | 1.05 ± 0.17 | 1.05 ± 0.16 | 1.17 ± 0.2 | 0.937 ± 0.083 | 0.698 ± 0.11 | 0.531 ± 0.02 | 0.483 ± 0.031 | 0.256 ± 0.039 | 0.159 ± 0.0035 | 0.083 ± 0.012 | 0.0507 ± 0.008 |
| NY BONE | 1 ± 0.019 | 0.95 ± 0.034 | 0.997 ± 0.033 | 1.015 ± 0.0098 | 1.05 ± 0.048 | 1.01 ± 0.034 | 0.925 ± 0.036 | 0.972 ± 0.012 | 0.9793 ± 0.0075 | 0.955 ± 0.016 | 1 ± 0.028 | 0.939 ± 0.018 | 0.921 ± 0.021 | 0.843 ± 0.054 | 0.649 ± 0.036 | 0.479 ± 0.042 |
| RDES SOFT TISSUE | 1.25 ± 0.074 | 1.32 ± 0.076 | 1.07 ± 0.044 | 1.18 ± 0.14 | 1.17 ± 0.13 | 1 ± 0.17 | 1.4 ± 0.22 | 1.25 ± 0.17 | 1.24 ± 0.016 | 1.14 ± 0.033 | 1.18 ± 0.15 | 0.972 ± 0.05 | 1.13 ± 0.13 | 1.29 ± 0.16 | 1.11 ± 0.16 | 1.41 ± 0.28 |
| SNU475 LIVER | 1.02 ± 0.066 | 0.981 ± 0.017 | 0.988 ± 0.045 | 0.984 ± 0.032 | 1 ± 0.028 | 1.03 ± 0.071 | 1.021 ± 0.009 | 1 ± 0.02 | 1.06 ± 0.024 | 1.05 ± 0.024 | 1.051 ± 0.0036 | 1.02 ± 0.026 | 1.03 ± 0.017 | 0.984 ± 0.038 | 1.03 ± 0.036 | 1.03 ± 0.032 |
| PCI30 HEADNECK | 1.01 ± 0.034 | 0.93 ± 0.019 | 1.04 ± 0.026 | 1.06 ± 0.064 | 1.14 ± 0.062 | 1.09 ± 0.05 | 1.02 ± 0.041 | 1.04 ± 0.092 | 1.04 ± 0.03 | 1.03 ± 0.052 | 0.987 ± 0.053 | 1.06 ± 0.034 | 0.963 ± 0.065 | 0.96 ± 0.079 | 0.843 ± 0.056 | 1.08 ± 0.075 |
| ZR751 BREAST | 1.26 ± 0.29 | 1.24 ± 0.11 | 1.02 ± 0.18 | 1.1 ± 0.011 | 1.11 ± 0.054 | 1.08 ± 0.23 | 0.786 ± 0.083 | 0.747 ± 0.024 | 1.21 ± 0.096 | 1.2 ± 0.073 | 1.22 ± 0.11 | 1.05 ± 0.16 | 0.988 ± 0.12 | 1.13 ± 0.12 | 0.865 ± 0.012 | 0.866 ± 0.059 |
| 22RV1 PROSTATE | 1.01 ± 0.046 | 1.04 ± 0.013 | 0.96 ± 0.068 | 0.99367 ± 0.00058 | 0.981 ± 0.079 | 1.01 ± 0.074 | 0.95 ± 0.062 | 0.777 ± 0.047 | 1.01 ± 0.024 | 0.935 ± 0.23 | 0.964 ± 0.19 | 0.897 ± 0.19 | 0.881 ± 0.27 | 0.801 ± 0.16 | 0.614 ± 0.17 | 0.509 ± 0.15 |
| HT1080 SOFT TISSUE | 1.02 ± 0.019 | 0.978 ± 0.031 | 0.998 ± 0.012 | 1.02 ± 0.018 | 0.9757 ± 0.0085 | 0.929 ± 0.01 | 0.797 ± 0.024 | 0.58 ± 0.046 | 1.1 ± 0.043 | 1.08 ± 0.042 | 1.07 ± 0.024 | 1.1 ± 0.058 | 0.964 ± 0.026 | 0.928 ± 0.083 | 0.665 ± 0.06 | 0.627 ± 0.016 |
| SG28 HEADNECK | 1.13 ± 0.065 | 1.03 ± 0.14 | 1.02 ± 0.12 | 1.07 ± 0.12 | 1.03 ± 0.14 | 1.02 ± 0.085 | 1.01 ± 0.11 | 0.919 ± 0.1 | 1.14 ± 0.054 | 1.28 ± 0.038 | 1.2 ± 0.062 | 1.06 ± 0.098 | 1.25 ± 0.14 | 1.11 ± 0.045 | 1.11 ± 0.13 | 1.065 ± 0.0021 |
| MG63 BONE | 1.01 ± 0.039 | 1 ± 0.014 | 1.07 ± 0.046 | 1.05 ± 0.019 | 1.06 ± 0.029 | 1.05 ± 0.018 | 0.989 ± 0.042 | 1.01 ± 0.043 | 0.968 ± 0.02 | 0.9493 ± 0.0021 | 0.704 ± 0.009 | 0.641 ± 0.0093 | 0.432 ± 0.017 | 0.356 ± 0.008 | 0.302 ± 0.016 | 0.291 ± 0.011 |
| NCIH441 LUNG | 1.04 ± 0.092 | 1.04 ± 0.028 | 1.01 ± 0.058 | 1.05 ± 0.051 | 1.07 ± 0.095 | 1.08 ± 0.1 | 1.2 ± 0.06 | 1.14 ± 0.065 | 1.11 ± 0.025 | 1.11 ± 0.058 | 1.03 ± 0.074 | 0.935 ± 0.039 | 0.71 ± 0.057 | 0.591 ± 0.12 | 0.494 ± 0.047 | 0.405 ± 0.056 |
| COLO320DM LARGE INTESTINE | 1.11 ± 0.093 | 1.07 ± 0.019 | 1.08 ± 0.079 | 1.1 ± 0.16 | 1.15 ± 0.16 | 1.21 ± 0.069 | 1.12 ± 0.065 | 1.19 ± 0.17 | 1.12 ± 0.044 | 1.12 ± 0.086 | 1.01 ± 0.076 | 1.03 ± 0.048 | 1.03 ± 0.071 | 0.928 ± 0.014 | 0.8568 ± 0.0037 | 0.792 ± 0.04 |
| HCC1954 BREAST | 1.17 ± 0.071 | 1.16 ± 0.08 | 1.11 ± 0.07 | 1.01 ± 0.36 | 1.22 ± 0.26 | 1.14 ± 0.064 | 1.15 ± 0.051 | 0.99 ± 0.036 | 1.07 ± 0.19 | 1.05 ± 0.13 | 1.32 ± 0.13 | 1.32 ± 0.05 | 1.13 ± 0.13 | 1.22 ± 0.023 | 1.29 ± 0.044 | 1.08 ± 0.044 |
| SIHA CERVIX | 1.05 ± 0.062 | 0.991 ± 0.053 | 1.01 ± 0.12 | 1.07 ± 0.071 | 1.05 ± 0.073 | 1.2 ± 0.05 | 1.11 ± 0.15 | 1.14 ± 0.11 | 1.08 ± 0.026 | 0.979 ± 0.052 | 1.08 ± 0.02 | 1.05 ± 0.055 | 1.07 ± 0.055 | 1.08 ± 0.085 | 0.983 ± 0.055 | 0.988 ± 0.11 |
| HELA CERVIX | 1.01 ± 0.092 | 1 ± 0.039 | 1 ± 0.025 | 0.984 ± 0.043 | 1.06 ± 0.044 | 1.07 ± 0.041 | 1.08 ± 0.03 | 1.13 ± 0.039 | 1.03 ± 0.043 | 0.9852 ± 0.0096 | 1.05 ± 0.043 | 1 ± 0.017 | 1.1 ± 0.03 | 1.08 ± 0.017 | 1.15 ± 0.065 | 0.944 ± 0.032 |
| CAL72 BONE | 1.09 ± 0.029 | 1.07 ± 0.033 | 1.1 ± 0.037 | 1.08 ± 0.055 | 1.08 ± 0.027 | 1.13 ± 0.043 | 1.1 ± 0.084 | 1.11 ± 0.024 | 1.04 ± 0.069 | 1.04 ± 0.03 | 1.03 ± 0.088 | 1.028 ± 0.01 | 1.06 ± 0.097 | 1.03 ± 0.14 | 0.958 ± 0.097 | 0.782 ± 0.2 |
